Source: patent US9452990B2, “Complement pathway modulators and uses thereof” (NOVARTIS AG, priority 2012, dated 2016)
Structures can show the parent of a compound that is named as a salt. Where two headings read alike, the source gives them in different places.

Biological target: human complement factor B (CVF-Bb complex) (Homo sapiens (Human), UniProt P00751)
Assay: Human Complement Factor B ELISA Assay
Type: biochemical
Method: Human Complement Factor B ELISA Assay
CVF-Bb complex prepared from purified cobra venom factor (1 μM), recombinant human complement factor B (expressed in drosophila cells and purified using standard methods) and human complement factor D (expressed in E. Coli, refolded and purified using standard methods). CVF-Bb complex at 3 nM concentration was incubated with test compound at various concentrations for 1 hour at room temperature in PBS pH 7.4 containing 10 mM MgCl2 and 0.05% (w/v) CHAPS. Human complement C3 substrate purified from plasma was added to a final concentration of 1 μM. After 1 hour incubation at room temperature, the enzyme reaction was stopped by addition of a cocktail of concentrated pan-protease inhibitors. The product of the reaction, C3a, was quantified by means of an enzyme-linked-immunosorbent assay. IC50 values were calculated from percentage of inhibition of CVF-Bb activity as a function of test compound concentration.

[1] = CVF-Bb complex 3 nM, 1 hour preincubation with compound at room temperature, human C3 substrate 1 μM, C3a quantified by ELISA, read-out: Factor B IC50

With COc1cc2c(N)nc(N3CCN(C(=O)C[C@@H](N)c4ccc(F)cc4)CC3)nc2c(F)c1OC [Example 46, (R)-3-Amino-1-[4-(4-amino-8-fluoro-6,7-dimethoxy-quinazolin-2-yl)-piperazin-1-yl]-3-(4-fluoro-phenyl)-propan-1-one] the IC50 [1] was 0.04 µM.
COc1cc2c(N)nc(N3CCN(C(=O)C[C@@H](N)c4cccc(Cl)c4)CC3)nc2c(F)c1OC [Example 47, (R)-3-Amino-1-[4-(4-amino-8-fluoro-6,7-dimethoxy-quinazolin-2-yl)-piperazin-1-yl]-3-(3-chloro-phenyl)-propan-1-one] gave an IC50 [1] of 0.11 µM.
COc1cc2c(N)nc(N3CCN(C(=O)C[C@@H](N)c4ccc(Cl)cc4)CC3)nc2c(F)c1OC [Example 48, (R)-3-Amino-1-[4-(4-amino-8-fluoro-6,7-dimethoxy-quinazolin-2-yl)-piperazin-1-yl]-3-(4-chloro-phenyl)-propan-1-one hydrochloride] was tested, and the IC50 was 0.09 µM.
COc1cc2c(N)nc(N3CCN(C(=O)C[C@@H](N)c4ccc(Br)cc4)CC3)nc2c(F)c1OC [Example 49, (R)-3-Amino-1-[4-(4-amino-8-fluoro-6,7-dimethoxy-quinazolin-2-yl)-piperazin-1-yl]-3-(4-bromo-phenyl)-propan-1-one hydrochloride] was tested, and the IC50 was 0.06 µM.
COc1cc2c(N)nc(N3CCN(C(=O)C[C@@H](N)c4ccc(F)cc4F)CC3)nc2c(F)c1OC [Example 50, (R)-3-Amino-1-[4-(4-amino-8-fluoro-6,7-dimethoxy-quinazolin-2-yl)-piperazin-1-yl]-3-(2,4-difluoro-phenyl)-propan-1-one hydrochloride] showed an IC50 of 0.45 µM.
COc1cc2c(N)nc(N3CCN(C(=O)C[C@@H](N)c4ccc(F)c(F)c4)CC3)nc2c(F)c1OC [Example 51, (R)-3-Amino-1-[4-(4-amino-8-fluoro-6,7-dimethoxy-quinazolin-2-yl)piperazin-1-yl]-3-(3,4-difluoro-phenyl)-propan-1-one hydrochloride] gave an IC50 of 0.18 µM.
For COc1cc2c(N)nc(N3CCN(C(=O)C[C@@H](N)c4ccc(F)c(Cl)c4)CC3)nc2c(F)c1OC [Example 52, (R)-3-Amino-1-[4-(4-amino-8-fluoro-6,7-dimethoxy-quinazolin-2-yl)-piperazin-1-yl]-3-(3-chloro-4-fluoro-phenyl)-propan-1-one hydrochloride], the IC50 was 0.11 µM.
Compound COc1cc2c(N)nc(N3CCN(C(=O)C[C@@H](N)c4ccc(C(F)F)cc4)CC3)nc2c(F)c1OC [Example 53, (R)-3-Amino-1-[4-(4-amino-8-fluoro-6,7-dimethoxy-quinazolin-2-yl)piperazin-1-yl]-3-(4-difluoromethyl-phenyl)-propan-1-one hydrochloride] has an IC50 of 0.05 µM.
COc1cc2c(N)nc(N3CCN(C(=O)C[C@@H](N)c4cccc(C(F)(F)F)c4)CC3)nc2c(F)c1OC [Example 54, (R)-3-Amino-1-[4-(4-amino-8-fluoro-6,7-dimethoxy-quinazolin-2-yl)-piperazin-1-yl]-3-(3-trifluoromethyl-phenyl)-propan-1-one] showed an IC50 [1] of 0.26 µM.
COc1cc2c(N)nc(N3CCN(C(=O)C[C@@H](N)c4ccc(C(F)(F)F)cc4)CC3)nc2c(F)c1OC [Example 55, (R)-3-Amino-1-[4-(4-amino-8-fluoro-6,7-dimethoxy-quinazolin-2-yl)piperazin-1-yl]-3-(4-trifluoromethyl-phenyl)-propan-1-one hydrochloride] showed an IC50 of 0.16 µM.
COc1cc2c(N)nc(N3CCN(C(=O)C[C@@H](N)CC(C)C)C[C@@H]3C)nc2c(F)c1OC [Example 56, (S)-3-Amino-1-[(S)-4-(4-amino-8-fluoro-6,7-dimethoxy-quinazolin-2-yl)-3-methyl-piperazin-1-yl]-5-methyl-hexan-1-one hydrochloride] showed an IC50 of 0.24 µM.
COc1cc2c(N)nc(N3CCN(C(=O)C[C@@H](N)c4ccccc4)C[C@@H]3C)nc2c(F)c1OC [Example 57, (R)-3-Amino-1-[(S)-4-(4-amino-8-fluoro-6,7-dimethoxy-quinazolin-2-yl)-3-methyl-piperazin-1-yl]-3-phenyl-propan-1-one hydrochloride] was tested, and the IC50 was 0.21 µM.
